We go through three molecules from patent publication US20060198832A1, “Peptide drugs for chronic lymphocytic leukemia (CLL) and other cancers” (priority 2004, published 2006).

As usually defined, the Kd is a measure of binding affinity in units of concentration.

For series [1] the following is noted: Letai et al., Cancer Cell 2:183-192 (2002); cited from earlier work.
Series [2] relates to chronic lymphocytic leukemia (CLL) cells. Kind of series: viability/apoptosis of CLL cells electroporated with peptides (Annexin V-FITC/PI flow cytometry). In kind it is cell-based, human. To be noted: for cell viability (Induction of Apoptosis in CLL Cells), patient sample JCB 178: CLL patient sample JCB 178; for cell viability (Induction of Apoptosis in CLL Cells), patient sample JCB 178 / cell viability (Induction of Apoptosis in CLL Cells), patient sample MA G15 / cell viability (Induction of Apoptosis in CLL Cells), patient sample TJK 328 / cell viability (Induction of Apoptosis in CLL Cells), patient sample TJK 340 #1 / cell viability (Induction of Apoptosis in CLL Cells), patient sample TJK 340 #2 / cell viability (Induction of Apoptosis in CLL Cells), patient sample TJK 375 / cell viability (Induction of Apoptosis in CLL Cells), Av.: peptide electroporated; for cell viability (Induction of Apoptosis in CLL Cells), patient sample TJK 328: CLL patient sample TJK 328; for cell viability (Induction of Apoptosis in CLL Cells), patient sample TJK 340 #1: CLL patient sample TJK 340 #1; for cell viability (Induction of Apoptosis in CLL Cells), patient sample TJK 340 #2: CLL patient sample TJK 340 #2; for cell viability (Induction of Apoptosis in CLL Cells), patient sample TJK 375: CLL patient sample TJK 375; for cell viability (Induction of Apoptosis in CLL Cells), Av.: average of the five preceding patient sample columns; for cell viability of CLL cells / cell viability in all the patient CLL samples: electroporated peptide; for cell viability of CLL cells: FIG. 2; for cell viability in all the patient CLL samples: summary of Table 4. From the text: Peripheral blood mononuclear cells (PBMC) from patients with chronic lymphocytic leukemia (CLL) were obtained from the CLL Research Consortium (CRC) tissue bank. Briefly, heparinized peripheral blood was obtained from patients diagnosed with B-CLL according to standard criteria (Chenson et al., Blood 87:4990-4997 (1996)). Lymphocytes were isolated by Ficoll density-gradient centrifugation and verified by immunofluorescence flow cytometry to be composed of greater than 95% CD5/CD19/CD23 triple positive B cells. […] CLL cells were electroporated with a dimethyl sulfoxide (DMSO) control or peptides essentially as described in […] et al., J. Immunol. Methods 275:41-56 (2003), and […] et al., Cancer Res. 63:1242-1248 (2003). For evaluation of apoptosis, at least 5×10^5 cells were recovered by centrifugation and double-stained with Annexin V-FITC, an early marker of apoptosis, and propidium iodide (PI), a nucleic acid-binding vital dye, followed by flow-cytometric analysis using the FL-1 and FL-3 channels of a Becton Dickinson flow cytometer (FACSort; San Jose, Calif.).
On the technique in general: In flow cytometry, cells or beads pass a laser one at a time.

The target in series [3] is BCL-2 (Homo sapiens, UniProt P10415). To be noted: Letai et al., Cancer Cell 2:183-192 (2002); cited from earlier work.
Series [4] has as its target T1, GST-Bcl2(1-205) (Homo sapiens, UniProt P10415).
T1 construct: 50 ng GST-Bcl2(1-205; Santa Cruz Biotechnology; Santa Cruz, Calif.); purchased Santa Cruz Biotechnology
As to the kind of experiment: competition ELISA for binding of BAD peptides to Bcl-2. To be noted: FIG. 1. The protocol: To determine binding affinity to Bcl-2, competition ELISA assays were performed essentially as described in Cabezas et al., supra, 2001, with the following components. Briefly, acetyl-Cys(biotin-BMCC)-Ahx-Bad peptide (50 ng peptide/50 μl ELISA buffer) was adsorbed to 96-well neutraAvidin coated microtiter plates. Competition peptides were subsequently mixed with 50 ng GST-Bcl2(1-205; Santa Cruz Biotechnology; Santa Cruz, Calif.) in 50 μl ELISA buffer per titer well and incubated for one hour at 37° C. Wells were washed and treated with 50 μl of a 1/4000 dilution of anti-GST Mab 7E5 (from ascites fluid provided by Shinichi Kitada) in ELISA buffer for one hour at 37° C. Quantification of peptide-bound GST-Bcl2/Mab7E5 complex was carried out with alkaline-phosphatase-conjugated goat […] and p-nitrophenylphosphate substrate as described in Cabezas et al., supra, 2001.
On the technique in general: ELISA stands for enzyme-linked immunosorbent assay.

Series [5] addresses Bcl-2 family Bcl-2/x1 (Homo sapiens, UniProt P10415). As to the kind of experiment: binding of penetratin-linked peptides to Bcl-2 (method not described).
The test system of series [6] is 697-Bcl-2 cells. As to the kind of experiment: cell viability assay in 697-Bcl-2 cells. In kind it is cell-based. As to conditions: 697-Bcl2 cells with higher levels of Bcl-2, FIG. 6 and 7. How it is done: (§1) The peptides were tested in cell viability assays essentially as described above in Examples I and II. Experiments were carried out in 697-neo and 697-Bcl-2 cells. 697 cells are from a cell line of preB leukemic cells. 697-Bcl-2 cells have been engineered to express high levels of Bcl-2. AML-349 and AML-728 are myeloblasts (verified by FACS analysis via CD34-positivity) that were isolated from respective patients with acute myelogenous leukemia (AML).

The test system of series [7] is 697-neo cells. As to the kind of experiment: cell viability assay in 697-neo cells. To be noted: low Bcl-2, FIG. 6. In kind it is cell-based. How it is done:
as §1

Series [8] concerns acute myelogenous leukemia (AML) cells. Kind of series: cell viability/apoptosis in patient AML cells. The series is classed as cell-based, human. How it is done:
as §1

Bridges are numbered along the chain shown (N, C = ends). Roman numbers before positions name the chains, in order. Where no end group is shown, it is not given here.

T1 sequence (P10415 1-205): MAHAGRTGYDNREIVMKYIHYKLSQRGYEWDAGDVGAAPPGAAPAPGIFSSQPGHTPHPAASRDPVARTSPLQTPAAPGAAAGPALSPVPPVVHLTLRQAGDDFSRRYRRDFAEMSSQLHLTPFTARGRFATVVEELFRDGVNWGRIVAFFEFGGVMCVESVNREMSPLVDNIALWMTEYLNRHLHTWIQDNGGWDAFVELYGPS
Bcl-2 family Bcl-2/x1, sequence (P10415 1-205): as above
BCL-2, sequence (P10415 whole entry, species assumed): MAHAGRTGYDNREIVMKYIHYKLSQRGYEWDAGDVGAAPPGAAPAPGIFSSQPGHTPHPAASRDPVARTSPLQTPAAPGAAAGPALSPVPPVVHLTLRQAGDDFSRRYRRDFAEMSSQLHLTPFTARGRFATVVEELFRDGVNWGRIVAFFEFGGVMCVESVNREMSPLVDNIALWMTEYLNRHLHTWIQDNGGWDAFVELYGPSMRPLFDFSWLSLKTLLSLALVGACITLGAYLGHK

As to `CSCC[C@H](NC(=O)[C@H](CCCNC(=N)N)NC(=O)[C@H](CCCNC(=N)N)NC(=O)[C@H](CC(C)C)NC(=O)[C@H](CCC(=O)O)NC(=O)[C@H](CCCNC(=N)N)NC(=O)CNC(=O)[C@H](Cc1ccc(O)cc1)NC(=O)[C@H](CCCNC(=N)N)NC(=O)[C@H](CCC(N)=O)NC(=O)[C@H](C)NC(=O)[C@H](C)NC(=O)[C@H](Cc1c[nH]c2ccccc12)NC(=O)[C@H](CC(C)C)NC(=O)[C@@H](N)CC(N)=O)C(=O)N[C@@H](CO)C(=O)N[C@@H](CC(=O)O)C(=O)N[C@@H](CCC(=O)O)C(=O)N[C@@H](Cc1ccccc1)C(=O)N[C@H](C(=O)N[C@@H](CC(=O)O)C(=O)N[C@@H](CO)C(=O)N[C@@H](Cc1ccccc1)C(=O)N[C@@H](CCCCN)C(=O)N[C@@H](CCCCN)C(=O)O)C(C)C` [SEQ ID NO: 1], the apoptotic activity entry in series [1] is given as “does not have apoptotic activity”. Moreover, in series [2], the cell viability (Induction of Apoptosis in CLL Cells), patient sample JCB 178 turned out to be 45%; the cell viability (Induction of Apoptosis in CLL Cells), patient sample MA G15 came to 4%; the cell viability (Induction of Apoptosis in CLL Cells), patient sample TJK 328 was determined as 42%; the cell viability (Induction of Apoptosis in CLL Cells), patient sample TJK 340 #1 came to 46%. In series [2], the cell viability (Induction of Apoptosis in CLL Cells), patient sample TJK 340 #2 came out at 56%; the cell viability (Induction of Apoptosis in CLL Cells), patient sample TJK 375 was 47%; the cell viability (Induction of Apoptosis in CLL Cells), Av. was 47%; the “cell viability of CLL cells” value was “minimal or insignificant changes in viability”. Further, the “cell viability in all the patient CLL samples” value in series [2] is listed as “minimally effected”. Also, the equilibrium dissociation constant (Kd) in series [3] is around 40 nM.
As to “NLWAAQRYGRELRRMADEFVDAFKK [SEQ ID NO: 2]”, in series [2], the cell viability (Induction of Apoptosis in CLL Cells), patient sample JCB 178 is 12%; the cell viability (Induction of Apoptosis in CLL Cells), patient sample MA G15 worked out at 2%; the cell viability (Induction of Apoptosis in CLL Cells), patient sample TJK 328 was 10%; the cell viability (Induction of Apoptosis in CLL Cells), patient sample TJK 340 #1 was found to be 12%. Besides, in series [2], the cell viability (Induction of Apoptosis in CLL Cells), patient sample TJK 340 #2 is 12%; the cell viability (Induction of Apoptosis in CLL Cells), patient sample TJK 375 was found to be 22%; the cell viability (Induction of Apoptosis in CLL Cells), Av. came out at 14%; the “cell viability of CLL cells” value was “significantly reduced”. Further, in series [2], the “cell viability in all the patient CLL samples” value was “dramatically reduced”. The “binding affinity for Bcl-2 compared to wild type BAD peptide” value in series [4] is listed as “significantly higher binding affinity for Bcl-2 than the wild type BAD peptide”.
“acetyl-NLWAAQRYGRELRRMADEFVDAFKKC-CRQIKIWFQNRRMKWKK-amide [2335] (peptide 1 Ac-NLWAAQRYGRELRRMADEFVDAFKKC; peptide 2 CRQIKIWFQNRRMKWKK-NH2; disulfide I:26-II:1) [compound 2335, Bad 2Ser/Ala peptide disulfide linked to penetratin-1]”: the “binding to Bcl-2” value in series [5] is reported as “binds Bcl-2”. The “amount of peptide needed to kill cells” value in series [6] is “it takes more 2335 to kill 697 cells with higher levels of Bcl-2”. In series [7], the “activity in reducing cell viability” value is reported as “more active in 697-neo cells with low Bcl-2 than a 2336 control peptide”. Moreover, in series [8] (AML cells of patient AML-349, FIG. 9), the “induction of apoptosis / killing” value was “induced apoptosis”. In series [8] (AML cells of patient AML-728, FIG. 8), the induction of apoptosis result is “induced apoptosis”.
